Test results published in PubChem BioAssay AID256 (DTP/NCI, 2004).
Several values for one entry are separate records, joined by “and”; a condition that tells them apart may be missing. Identical values can stand only once. Toxic doses and inconclusive results are not listed. The calls were made as follows: active = survival T/C of 150% or more; inactive = T/C below 125% in these data.

Tested on: CD2F1 mice, L1210 leukemia ip, survival T/C
Assay: NCI In Vivo Anticancer Drug Screen. Data for tumor model L1210 Leukemia (intraperitoneal) in CD2F1 (CDF1) mice
Conditions: endpoint: mean survival time, higher = longer survival
Outline: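 Mice carrying a transplanted tumor received test compound or vehicle alone. The value is the measurement in the treated group divided by that in the vehicle-treated control group.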

[1] = dose: 100.0 mg/kg/injection, schedule: Q01DX009 (ip), vehicle: saline
[2] = dose: 100.0 mg/kg/injection, schedule: Q04DX003 (ip), vehicle: saline
[3] = dose: 200.0 mg/kg/injection, schedule: Q01DX009 (ip), vehicle: saline
[4] = dose: 200.0 mg/kg/injection, schedule: Q04DX003 (ip), vehicle: saline
[5] = dose: 400.0 mg/kg/injection, schedule: Q01DX009 (ip), vehicle: saline
[6] = dose: 100.0 mg/kg/injection, schedule: Q01DX009 (ip), vehicle: saline with Tween-80
[7] = dose: 100.0 mg/kg/injection, schedule: Q04DX003 (ip), vehicle: saline with Tween-80
[8] = dose: 200.0 mg/kg/injection, schedule: Q01DX009 (ip), vehicle: saline with Tween-80
[9] = dose: 200.0 mg/kg/injection, schedule: Q04DX003 (ip), vehicle: saline with Tween-80
[10] = dose: 400.0 mg/kg/injection, schedule: Q04DX003 (ip), vehicle: saline with Tween-80
[11] = dose: 400.0 mg/kg/injection, schedule: Q01DX009 (ip), vehicle: saline with Tween-80
[12] = dose: 25.0 mg/kg/injection, schedule: Q04DX003 (ip), vehicle: saline with Tween-80
[13] = dose: 50.0 mg/kg/injection, schedule: Q04DX003 (ip), vehicle: saline with Tween-80
[14] = dose: 25.0 mg/kg/injection, schedule: Q01DX009 (ip), vehicle: saline with Tween-80
[15] = dose: 50.0 mg/kg/injection, schedule: Q01DX009 (ip), vehicle: saline with Tween-80
[16] = dose: 100.0 mg/kg/injection, schedule: Q01DX001 (ip), vehicle: saline with Tween-80
[17] = dose: 100.0 mg/kg/injection, schedule: Q04DX002 (ip), vehicle: saline with Tween-80
[18] = dose: 200.0 mg/kg/injection, schedule: Q01DX001 (ip), vehicle: saline with Tween-80
[19] = dose: 200.0 mg/kg/injection, schedule: Q04DX002 (ip), vehicle: saline with Tween-80
[20] = dose: 400.0 mg/kg/injection, schedule: Q01DX001 (ip), vehicle: saline with Tween-80
[21] = dose: 25.0 mg/kg/injection, schedule: Q01DX009 (ip), vehicle: saline
[22] = dose: 50.0 mg/kg/injection, schedule: Q01DX009 (ip), vehicle: saline

Measured: T/C

CCCCNC(C)(C)C(SS)c1cccs1 (centres undefined)
inactive: dose: 66.0 mg/kg/injection, schedule: Q01DX009 (ip), vehicle: other 101 % of control | dose: 150.0 mg/kg/injection, schedule: Q01DX009 (ip), vehicle: other 108 % of control | dose: 200.0 mg/kg/injection, schedule: Q01DX009 (ip), vehicle: other 94 % of control | dose: 400.0 mg/kg/injection, schedule: Q01DX009 (ip), vehicle: other 92 % of control

Nc1cc(S(=O)(=O)O)cc2ccc(S(=O)(=O)O)cc12
inactive: [1] 106 % of control | [2] 96 % of control | [3] 95 % of control | [4] 92 % of control | [5] 92 % of control | dose: 400.0 mg/kg/injection, schedule: Q04DX003 (ip), vehicle: saline 117 % of control

C[N+](C)(C)CC[N+](C)(C)C
inactive: dose: 50.0 mg/kg/injection, schedule: Q04DX003 (ip), vehicle: saline 100 % of control | [2] 103 % of control | [4] 97 % of control

CC(C)C(=NO)C(C)C
inactive: [6] 98 % of control | [7] 101 % of control | [8] 93 % of control | [9] 93 % of control | [10] 91 % of control

Cc1[nH]c(=S)[nH]c(=O)c1CC(C)O (centres undefined)
inactive: [6] 97 % of control | [8] 90 % of control | [11] 98 % of control

O=C1C(=O)C(c2ccccc2)(c2ccccc2)c2cc(-c3ccccc3)c(-c3ccccc3)cc21
inactive: [12] 93 % of control | [13] 89 % of control | [7] 93 % of control

COCNC(=S)N/N=C/c1ccccn1
inactive: dose: 6.25 mg/kg/injection, schedule: Q01DX009 (ip), vehicle: saline with Tween-80 97 % of control | dose: 12.5 mg/kg/injection, schedule: Q01DX009 (ip), vehicle: saline with Tween-80 100 % of control | dose: 12.5 mg/kg/injection, schedule: Q04DX002 (ip), vehicle: saline with Tween-80 94 % of control | [14] 97 % of control | dose: 25.0 mg/kg/injection, schedule: Q04DX002 (ip), vehicle: saline with Tween-80 97 % of control | [15] 122 % of control | dose: 50.0 mg/kg/injection, schedule: Q04DX002 (ip), vehicle: saline with Tween-80 97 % of control

N/N=C(\C(=N\N)c1ccccc1)c1ccccc1
inactive: [7] 95 % of control | [9] 93 % of control | [10] 89 % of control

COC1OC2COC(c3ccccc3)OC2C(O)C1N (centres undefined)
inactive: [14] 96 % of control | [15] 100 % of control | [6] 103 % of control

O=C(COc1ccccc1)NC(=S)Nc1nccs1
inactive: [12] 87 % of control | [13] 88 % of control and 103 % of control | [16] 97 % of control | [6] 93 % of control and 102 % of control | [17] 98 % of control | [7] 88 % of control and 97 % of control | [18] 95 % of control | [8] 93 % of control and 104 % of control | [19] 102 % of control | [9] 101 % of control and 108 % of control | [20] 107 % of control | [11] 111 % of control

Cc1ccc(S(=O)(=O)NCC(Br)CBr)cc1 (centres undefined)
inactive: [6] 93 % of control | [7] 100 % of control | [8] 93 % of control | [9] 98 % of control | [11] 96 % of control | [10] 100 % of control

NC(N)=Nc1cccc(OCCCOc2ccccc2)c1
inactive: dose: 18.75 mg/kg/injection, schedule: Q01DX001 (ip), vehicle: saline with Tween-80 102 % of control | dose: 37.5 mg/kg/injection, schedule: Q01DX001 (ip), vehicle: saline with Tween-80 98 % of control | dose: 75.0 mg/kg/injection, schedule: Q01DX001 (ip), vehicle: saline with Tween-80 97 % of control

C=CC1(O)CC2CCC1C2 (centres undefined)
inactive: [7] 106 % of control | [9] 93 % of control | [10] 101 % of control

CCCCOc1ccc(/C=N\N=C\c2ccc(OCCCC)cc2)cc1
inactive: [7] 88 % of control | [9] 91 % of control | [10] 86 % of control

COCc1nnc2nc[nH]c(=O)c2n1
inactive: dose: 100.0 mg/kg/injection, schedule: Q01DX001 (ip), vehicle: carboxymethylcellulose (CMC) 98 % of control | dose: 200.0 mg/kg/injection, schedule: Q01DX001 (ip), vehicle: carboxymethylcellulose (CMC) 101 % of control

CC(C)(CCCO)c1cccc(Cl)c1
inactive: [15] 104 % of control | [6] 101 % of control | [8] 104 % of control

COC(=O)/C([O-])=C(\C(=O)OC)[n+]1cc(Br)cc2ccccc21
inactive: [17] 101 % of control | [19] 104 % of control

Cc1ccc(NC(=O)Oc2cc(C)c(Cl)c(C)c2Cl)c(C)c1
inactive: [15] 89 % of control | [6] 101 % of control | [8] 104 % of control

NC(N)=N/N=C/c1ccc(-c2ccccc2)cc1
inactive: dose: 6.25 mg/kg/injection, schedule: Q01DX001 (ip), vehicle: saline with Tween-80 95 % of control | dose: 12.5 mg/kg/injection, schedule: Q01DX001 (ip), vehicle: saline with Tween-80 109 % of control | dose: 25.0 mg/kg/injection, schedule: Q01DX001 (ip), vehicle: saline with Tween-80 100 % of control

CC(=O)c1cc([N+](=O)[O-])ccc1O
inactive: [14] 90 % of control | [15] 90 % of control | [6] 88 % of control | [7] 97 % of control

CC(=O)N(C)c1ccc(NC(=O)Nc2ccc(C)c([N+](=O)[O-])c2)cc1
inactive: [15] 102 % of control | [6] 94 % of control | [8] 90 % of control

Cc1noc(C)c1CO
inactive: [1] 100 % of control | [3] 101 % of control | [5] 101 % of control

CCCCN(CCCC)C(=S)Nc1ccccc1
inactive: [15] 96 % of control | [16] 107 % of control | [6] 96 % of control | [18] 102 % of control | [8] 86 % of control | [20] 96 % of control

O=C(CC(Br)C(=O)c1ccccc1)c1ccccc1 (centres undefined)
inactive: dose: 100.0 mg/kg/injection, schedule: Q04DX003 (ip), vehicle: saline sonified 92 % of control | dose: 200.0 mg/kg/injection, schedule: Q04DX003 (ip), vehicle: saline sonified 94 % of control | dose: 400.0 mg/kg/injection, schedule: Q04DX003 (ip), vehicle: saline sonified 97 % of control

CC(C)CCCC(C)C1CCC2C3CC=C4CC(O)CCC4(C)C3CCC12C (centres undefined) (tested in a mixture with another compound)
inactive: dose: 12.5 mg/kg/injection, schedule: Q01DX009 (ip), vehicle: water 102 % of control | dose: 25.0 mg/kg/injection, schedule: Q01DX009 (ip), vehicle: water 100 % of control | dose: 50.0 mg/kg/injection, schedule: Q01DX009 (ip), vehicle: water 102 % of control

Cc1ccc(S(=O)(=O)NCl)cc1
inactive: [21] 89 % of control | [22] 94 % of control

O=S(=O)(O)NC1CCCCC1
inactive: [21] 96 % of control | [22] 95 % of control | [1] 91 % of control and 93 % of control
